# Assay results: patent US12062422B2, “System, method and computer-accessible medium for use of heavy water as a probe for imaging metabolic activities” (The Trustees of Columbia University in the City of New York, priority 2018, dated 2024)
# Columns and labels:
# [1] = system: mice; experiment: Injection of D-PA into mice, SRS imaging of CDL signal; assay type: in vivo; settings: intraperitoneal bolus injection of 96 μmol
# Procedure: To inject D-labeled palmitic acids (“D-Pas”) intravenously, mice were anesthetized by isoflurane, and one of the carotid arteries was cannulated for the implantation of a catheter. A syringe filled with 4 mM D-PA dissolved in mammalian Ringer's solution was then connected with the implanted catheter, and D-PA solution was perfused at 0.001 ml/min using a syringe pump (e.g., AL-1000, WPI). The administration lasted for 8 hours every day for three consecutive days before the mice were sacrificed and their organs were harvested, fixed, sectioned, and imaged by SRS. To inject D-PA intraperitoneally, 0.16 ml of 600 mM D-PA emulsion was injected into the lower right side of abdomen according to a previous method. (See, e.g., Reference 64). 17 hours later, the mice were sacrificed and their tissues were collected and imaged.
# FIGS. 13A-13C show exemplary images that illustrate imaging de novo biosynthesis in various mouse organs. […] Lipid-rich sebaceous glands and adipose tissues were harvested from adult mice that drank 25% D2O for 8 and 15 days, respectively. Myelinated axon fibers of internal capsule were harvested from P11 mouse pups that were fed on milk produced by mother mice drinking 25% D2O for 6 days before imaging. […] Tissues were harvested, fixed, and imaged 17 hours after the injection. […] Scale bar=[…].
# [2] = system: HeLa cells; experiment: SRS imaging of lipid droplets in HeLa cells, D-labeled fatty acids versus D2O; assay type: cell-based; settings: for CDL signal distribution, lipid droplets: 10 μM D-labeled fatty acid, 6 hours
# Procedure: For live-cell imaging, HeLa and COS-7 cells were seeded onto a glass-bottom dish (e.g., MatTek) and grown for 6 to 8 hours in regular DMEM before the medium was changed to DMEM containing 70% D2O. Cells were then grown for different periods of time before being placed onto the stage for SRS imaging. When treating cells with D-labeled fatty acids, they were first reacted with sodium hydroxide and then coupled to bovine serum albumin (“BSA”) in about 2:1 molar ratio to make 2 mM stock solution. Those stock solutions were then added to the medium to reach the final working concentration (e.g., 10 μM).
# FIGS. 4A-4E illustrate the exemplary DO-SRS visualizes de novo lipogenesis in cultured cells and in C. elegans. […] The number of lipid droplets formed in the three conditions were quantified (mean±s.d.; N=5 for D-OA, 15 for D-PA, and 8 for D2O; double asterisks indicate p<0.01 in an unpaired t-test). CHL signal for D2O treatment confirmed the presence of few lipid droplets. […] Live bacteria were labeled by deuterium (element 405), and killed bacteria were not labeled (element 410). […] E. coli OP50 were seeded onto the D2O plates 24 hours before the experiments. Scale bar=20 μm. […] CDL mean intensity was plotted. For all C. elegans experiments, at least 8 animals were imaged for each condition to calculate mean intensity; mean±s.d. of the mean intensity was shown.
# [3] = system: HeLa cells; experiment: Raman spectra of D2O-treated HeLa cells with protein or lipid synthesis inhibitors; assay type: cell-based; settings: 24 hours
# Procedure: For inhibitor treatments, cells were first grown in glass bottom dishes with DMEM made of H2O overnight, and then the medium was changed to 70% D2O DMEM containing either 10 nM fatty acid synthase inhibitor TVB-3166 (e.g., Sigma CAS 1533438-83-3) or 1 μM protein synthesis inhibitor anisomycin (e.g., Sigma CAS 22862-76-6). Cells were then cultured for 24 hours, imaged by SRS microscopy, and fixed by 4% paraformaldehyde for spontaneous Raman spectroscopy.
# Cells grown in DMEM made of 100% H2O were used as control.
# [4] = system: endoplasmic reticulum; settings: approximately 200 μM; cited from earlier work
# [5] = system: C. elegans; experiment: Toxicity of D2O on C. elegans (lethality, sterility, brood size, gonad development); assay type: in vivo
# Procedure: C. elegans wild type (e.g., N2) and mutant strains were maintained at 20° C. using nematode growth media (“NGM”) and E. coli strain OP50 as a food source. (See. e.g., Reference 61). Different concentrations of D2O were added to replace H2O in NGM. E. coli OP50 were seeded on D2O-containing NGM plates and grown for 24 hours; worms were then placed at different ages onto those plates for various amount of time. To determine the toxicity of D2O, eggs were prepared using hypochlorite, which made the eggshell porous and permeable to D2O, placed them onto plates containing different concentration of D2O, and counted the number of eggs that could not hatch into normal moving larva. Fourth stage larva were placed onto those plates and counted how many animals became sterile and determined the brood size by counting the total number of hatch larvae from the all the eggs laid by one animal. Three replicates were performed.
# (§1) FIGS. 10A-10E show exemplary graphs and images that illustrate toxicity of D2O on cells and C. elegans. […] Three replicates were performed. Mean and s.d. were shown. […] D-labeled OP50 refers to overnight grown culture of E. coli OP50 that were seeded onto the D2O-containing NGM plates 24 hours before the experiment; non-labeled OP50 refers to the experimental setup, in which bacteria were killed by UV after being placed onto the D2O plates and thus was not labeled by deuterium. Each group has 50 worms, and three replicates were made. Mean and s.d. were shown.
# 50 worms were used for each treatment, and […] replicates were made. Mean and s.d. were shown. […] Scale bar=20 μm.
# [6] = mouse, in vivo; cited from earlier work
# [7] = in vivo; cited from earlier work
# [8] = system: HeLa cells; experiment: CellTiter-Glo Luminescent Cell Viability Assay, cellular toxicity of D2O; assay type: cell-based; settings: medium containing D2O
# Procedure: To determine cellular toxicity, HeLa cells and COS-7 cells were first seeded in […] plates at about 500 per cm^2 and grown overnight; the culture was then changed to DMEM containing different concentration (e.g., 0% to 100%) of D2O for about 48 hours. The viability of cell was accessed using the CellTiter-Glo® Luminescent Cell Viability Assay (e.g., Promega) according to the manufacturer's protocol. Cells cultured in pure DMEM medium were used as control and wells containing only medium without cells for background luminescence. Viability was calculated using the background-corrected […] as follows: Viability (%)=Absorbance of experiment well/Absorbance of control well×100%. Three replicates were performed.
# as §1
compound,measurement,setting,value
"[2H]C([2H])([2H])C([2H])([2H])C([2H])([2H])C([2H])([2H])C([2H])([2H])C([2H])([2H])C([2H])([2H])C([2H])([2H])C([2H])([2H])C([2H])([2H])C([2H])([2H])C([2H])([2H])C([2H])([2H])C([2H])([2H])C([2H])([2H])C(=O)O [D-PA, D31-palmitic acids]",CDL signal in pancreas,[1],accumulation of CDL signal in the ER membrane of pancreatic cells
same,"CDL signal distribution, lipid droplets",[2],accumulation of CDL signal in lipid droplets
"[2H]OC(=O)C([2H])([2H])C([2H])([2H])C([2H])([2H])C([2H])([2H])C([2H])([2H])C([2H])([2H])C([2H])([2H])/C([2H])=C(/[2H])C([2H])([2H])C([2H])([2H])C([2H])([2H])C([2H])([2H])C([2H])([2H])C([2H])([2H])C([2H])([2H])C([2H])([2H])[2H] [D-OA, D34-oleic acids]","number of lipid droplets, comparison",[2]; 10 μM,remarkably more lipid droplets than D-PA
same,"CDL signal distribution, lipid droplets",[2],accumulation of CDL signal in lipid droplets
COc1ccc(C[C@H]2NC[C@H](O)[C@H]2OC(C)=O)cc1 [anisomycin],peak of remaining C-D Raman signal,"[3]; 1 μM anisomycin, 70% D2O DMEM, remaining D-labeled lipid signal",2135 cm⁻¹
"CCCCCCCCCCCCCCCC(=O)O [PA, palmitic acid]",effect on endoplasmic reticulum membrane,[4],drove the formation of solid-like microdomain and membrane phase separation in endoplasmic reticulum
"CCCCCCCC/C=C\CCCCCCCC(=O)O [OA, oleic acid]",effect on endoplasmic reticulum membrane,[4],not
TVB-3166,peak of remaining C-D Raman signal,"[3]; 10 nM TVB-3166, 70% D2O DMEM, remaining D-labeled protein signal",2185 cm⁻¹
"[2H]O[2H] [D2O, deuterium oxide]",gonad development,"[5]; 60% D2O, animals developed from L4 to adults on D2O plates",gonad developed normally
same,gonad development,[5]; 80% D2O,gonad development was disrupted
same,proliferation of the germ cells,[5]; 80% D2O,appeared to be affected
same,D2O concentration with no observable toxicity and no effect on cell division,[5]; C. elegans,< 60%
same,embryo formation,[5]; in vivo,normal embryos were formed
same,embryo formation in the uterus,[5]; in vivo,no embryos were formed
same,D2O enrichment that did not cause any effect on physiological processes,[6],below 20%
same,adverse symptoms,[7],does not cause any adverse symptoms
same,body water enrichment,[7],approximately 2%
same,D2O concentration above which toxicity arises,[8],exceeded 80%
same,lipid droplets in CDL and CHL channels,"[2]; 70% D2O, 24 hours",very few lipid droplets
